Measured values as given in PubChem BioAssay AID2060604 (Molecular Pharmacology Branch, DTP, NCI, 2025).

System: 379773-124-R-J2-PDC complex spheroids, viability % test/control
Assay: Anticancer human tumor 379773-124-R-J2-PDC patient-derived endometrial carcinoma cell line growth inhibition [CLK]
Conditions: for IC50: curve of first compound; for viability, T/C: stronger effect = lower value
Method in brief: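 Patient-derived tumor cells grown as complex spheroids with HUVEC endothelial cells and mesenchymal stem cells, treated with drug combinations. Concentrations descend in half-log steps from near clinical Cmax, or from 10 microM if Cmax unknown.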

[1] = second compound 0.0316 µM, first compound 0.00316 µM
[2] = second compound 0.0316 µM, first compound 0.01 µM
[3] = second compound 0.0316 µM, first compound 0.0316 µM
[4] = second compound 0.0316 µM, first compound 0.1 µM
[5] = second compound 0.0316 µM, first compound 0.316 µM
[6] = second compound 0.0316 µM, first compound 1 µM
[7] = second compound 0.1 µM, first compound 0.00316 µM
[8] = second compound 0.1 µM, first compound 0.01 µM
[9] = second compound 0.1 µM, first compound 0.0316 µM
[10] = second compound 0.1 µM, first compound 0.1 µM
[11] = second compound 0.1 µM, first compound 0.316 µM
[12] = second compound 0.1 µM, first compound 1 µM
[13] = second compound 0.316 µM, first compound 0.00316 µM
[14] = second compound 0.316 µM, first compound 0.01 µM
[15] = second compound 0.316 µM, first compound 0.0316 µM
[16] = second compound 0.316 µM, first compound 0.1 µM
[17] = second compound 0.316 µM, first compound 0.316 µM
[18] = second compound 0.316 µM, first compound 1 µM
[19] = second compound 1 µM, first compound 0.00316 µM
[20] = second compound 1 µM, first compound 0.01 µM
[21] = second compound 1 µM, first compound 0.0316 µM
[22] = second compound 1 µM, first compound 0.1 µM
[23] = second compound 1 µM, first compound 0.316 µM
[24] = second compound 1 µM, first compound 1 µM
[25] = second compound 3.16 µM, first compound 0.00316 µM
[26] = second compound 3.16 µM, first compound 0.01 µM
[27] = second compound 3.16 µM, first compound 0.0316 µM
[28] = second compound 3.16 µM, first compound 0.1 µM
[29] = second compound 3.16 µM, first compound 0.316 µM
[30] = second compound 3.16 µM, first compound 1 µM
[31] = second compound 10 µM, first compound 0.00316 µM
[32] = second compound 10 µM, first compound 0.01 µM
[33] = second compound 10 µM, first compound 0.0316 µM
[34] = second compound 10 µM, first compound 0.1 µM
[35] = second compound 10 µM, first compound 0.316 µM
[36] = second compound 10 µM, first compound 1 µM
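Note: compound exposure lasted seven days before the viability readout.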
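Throughout, for viability, T/C: 100% = DMSO vehicle control wells.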

## COc1c(OCCCN2CCOCC2)ccc2c3n(c(=NC(=O)c4cnc(N)nc4)nc12)CCN3 + CNC(=O)c1ccc(Nc2nc(OC3CCCC3)c3c(-c4ccc5nc(C)oc5c4)c[nH]c3n2)c(OC)c1
Second compound 0.0316 µM
  IC50: 59.5 nM
Second compound 0.1 µM
  IC50: < 3.16 nM
Second compound 0.316 µM
  IC50: < 3.16 nM
Second compound 1 µM
  IC50: < 3.16 nM
Second compound 3.16 µM
  IC50: < 3.16 nM
Second compound 10 µM
  IC50: < 3.16 nM
[1]
  viability, T/C: 81.8%
[2]
  viability, T/C: 85.6%
[3]
  viability, T/C: 65%
[4]
  viability, T/C: 37.5%
[5]
  viability, T/C: 6.4%
[6]
  viability, T/C: 2.99%
[7]
  viability, T/C: 31.6%
[8]
  viability, T/C: 29%
[9]
  viability, T/C: 25.3%
[10]
  viability, T/C: 14.5%
[11]
  viability, T/C: 4.25%
[12]
  viability, T/C: 1.91%
[13]
  viability, T/C: 34.9%
[14]
  viability, T/C: 32.7%
[15]
  viability, T/C: 19.5%
[16]
  viability, T/C: 10.1%
[17]
  viability, T/C: 3.08%
[18]
  viability, T/C: 1.56%
[19]
  viability, T/C: 38.9%
[20]
  viability, T/C: 25.7%
[21]
  viability, T/C: 17.8%
[22]
  viability, T/C: 7.48%
[23]
  viability, T/C: 1.73%
[24]
  viability, T/C: 1.03%
[25]
  viability, T/C: 28.3%
[26]
  viability, T/C: 24.1%
[27]
  viability, T/C: 15.3%
[28]
  viability, T/C: 8.87%
[29]
  viability, T/C: 2.29%
[30]
  viability, T/C: 0.59%
[31]
  viability, T/C: 22.5%
[32]
  viability, T/C: 21.5%
[33]
  viability, T/C: 16.8%
[34]
  viability, T/C: 7.19%
[35]
  viability, T/C: 1.54%
[36]
  viability, T/C: 0.67%

## C=CC(=O)Nc1cc(Nc2nccc(-c3cn(C)c4ccccc34)n2)c(OC)cc1N(C)CCN(C)C + CN1CCN(c2cc(C(=O)Nc3cc4cc(-c5cnn(C)c5)ccc4cn3)ccn2)CC1
Second compound 0.0316 µM
  IC50: > 300 nM
Second compound 0.1 µM
  IC50: > 300 nM
Second compound 0.316 µM
  IC50: < 0.949 nM
Second compound 1 µM
  IC50: < 0.949 nM
Second compound 3.16 µM
  IC50: < 0.949 nM
Second compound 10 µM
  IC50: < 0.949 nM
Second compound 0.0316 µM, first compound 0.000949 µM
  viability, T/C: 100%
Second compound 0.0316 µM, first compound 0.003 µM
  viability, T/C: 93.1%
Second compound 0.0316 µM, first compound 0.00949 µM
  viability, T/C: 99.4%
Second compound 0.0316 µM, first compound 0.03 µM
  viability, T/C: 84.7%
Second compound 0.0316 µM, first compound 0.0949 µM
  viability, T/C: 96%
Second compound 0.0316 µM, first compound 0.3 µM
  viability, T/C: 89.7%
Second compound 0.1 µM, first compound 0.000949 µM
  viability, T/C: 80.4%
Second compound 0.1 µM, first compound 0.003 µM
  viability, T/C: 74%
Second compound 0.1 µM, first compound 0.00949 µM
  viability, T/C: 102%
Second compound 0.1 µM, first compound 0.03 µM
  viability, T/C: 84%
Second compound 0.1 µM, first compound 0.0949 µM
  viability, T/C: 76.2%
Second compound 0.1 µM, first compound 0.3 µM
  viability, T/C: 84.6%
Second compound 0.316 µM, first compound 0.000949 µM
  viability, T/C: 20.2%
Second compound 0.316 µM, first compound 0.003 µM
  viability, T/C: 31.4%
Second compound 0.316 µM, first compound 0.00949 µM
  viability, T/C: 34%
Second compound 0.316 µM, first compound 0.03 µM
  viability, T/C: 34%
Second compound 0.316 µM, first compound 0.0949 µM
  viability, T/C: 29.6%
Second compound 0.316 µM, first compound 0.3 µM
  viability, T/C: 20.9%
Second compound 1 µM, first compound 0.000949 µM
  viability, T/C: 0.28%
Second compound 1 µM, first compound 0.003 µM
  viability, T/C: 1.12%
Second compound 1 µM, first compound 0.00949 µM
  viability, T/C: 1.77%
Second compound 1 µM, first compound 0.03 µM
  viability, T/C: 0.18%
Second compound 1 µM, first compound 0.0949 µM
  viability, T/C: 1.57%
Second compound 1 µM, first compound 0.3 µM
  viability, T/C: 0.13%
Second compound 3.16 µM, first compound 0.000949 µM
  viability, T/C: 1.26%
Second compound 3.16 µM, first compound 0.003 µM
  viability, T/C: 0.19%
Second compound 3.16 µM, first compound 0.00949 µM
  viability, T/C: 0.82%
Second compound 3.16 µM, first compound 0.03 µM
  viability, T/C: 1.59%
Second compound 3.16 µM, first compound 0.0949 µM
  viability, T/C: 0.11%
Second compound 3.16 µM, first compound 0.3 µM
  viability, T/C: 0.61%
Second compound 10 µM, first compound 0.000949 µM
  viability, T/C: 0.28%
Second compound 10 µM, first compound 0.003 µM
  viability, T/C: 0.45%
Second compound 10 µM, first compound 0.00949 µM
  viability, T/C: 0.46%
Second compound 10 µM, first compound 0.03 µM
  viability, T/C: 0.59%
Second compound 10 µM, first compound 0.0949 µM
  viability, T/C: 0.28%
Second compound 10 µM, first compound 0.3 µM
  viability, T/C: 0.26%

## CCN1CCN(Cc2ccc(Nc3ncc(F)c(-c4cc(F)c5nc(C)n(C(C)C)c5c4)n3)nc2)CC1 + CN1CCN(c2cc(C(=O)Nc3cc4cc(-c5cnn(C)c5)ccc4cn3)ccn2)CC1
Second compound 0.0316 µM
  IC50: > 1000 nM
Second compound 0.1 µM
  IC50: > 1000 nM
Second compound 0.316 µM
  IC50: < 3.16 nM
Second compound 1 µM
  IC50: < 3.16 nM
Second compound 3.16 µM
  IC50: < 3.16 nM
Second compound 10 µM
  IC50: < 3.16 nM
[1]
  viability, T/C: 90.3%
[2]
  viability, T/C: 85.3%
[3]
  viability, T/C: 82.2%
[4]
  viability, T/C: 98%
[5]
  viability, T/C: 86%
[6]
  viability, T/C: 79.6%
[7]
  viability, T/C: 101%
[8]
  viability, T/C: 76.5%
[9]
  viability, T/C: 76.9%
[10]
  viability, T/C: 80.7%
[11]
  viability, T/C: 78.1%
[12]
  viability, T/C: 72%
[13]
  viability, T/C: 32.4%
[14]
  viability, T/C: 26%
[15]
  viability, T/C: 30.9%
[16]
  viability, T/C: 30.3%
[17]
  viability, T/C: 39.7%
[18]
  viability, T/C: 32.5%
[19]
  viability, T/C: 0.18%
[20]
  viability, T/C: 0.18%
[21]
  viability, T/C: 1.15%
[22]
  viability, T/C: 0.3%
[23]
  viability, T/C: 0.96%
[24]
  viability, T/C: 2.04%
[25]
  viability, T/C: 0.11%
[26]
  viability, T/C: 0.15%
[27]
  viability, T/C: 0.25%
[28]
  viability, T/C: 0.83%
[29]
  viability, T/C: 0.11%
[30]
  viability, T/C: 0.44%
[31]
  viability, T/C: 1.88%
[32]
  viability, T/C: 1.3%
[33]
  viability, T/C: 0.17%
[34]
  viability, T/C: 1.36%
[35]
  viability, T/C: 0.15%
[36]
  viability, T/C: 0.16%
